Measurements: US12403137B2, “Compounds and methods of use” (Tango Therapeutics, Inc., priority 2019, dated 2025)

Columns and labels:
PRMT5 [1] = target: T1, PRMT5 (Homo sapiens, UniProt O14744); test: PRMT5 inhibition assay with MTA as cofactor; type: biochemical; settings: against PRMT5 with MTA as cofactor
T1 construct: purchased Viva (custom protein)
Source text: The Ki values can be calculated from the IC50 values as described in the Examples section. As detailed in the Examples section, for the assay performed in the presence of SAM, IC50=Ki×1.5 (Ki=IC50/1.5). For the assay performed in the presence of MTA, IC50=Ki×13.5 (Ki=IC50/13.5). Column 6 indicates the ratio between the Ki of compounds in the presence of SAM and the Ki of compounds in the presence of MTA

PRMT5 [2] = target: T1, PRMT5; test: PRMT5 inhibition assay with no cofactor; type: biochemical; settings: against PRMT5 with no cofactor; read-out: No Co-factor IC50
[3] = system: HAP1 MTAP-intact cell line; test: SDMA in-cell western assay, HAP1 MTAP-intact; type: cell-based; settings: Homo sapiens
Protocol: (§1) Table 1 also indicates IC50 values in an MTAP-isogenic cell line pair for exemplary compounds in an SDMA in-cell western assay (columns 7-8). HAP1 MTAP-intact is a cell line in which endogenous levels of MTAP are expressed, and HAP1 MTAP-deleted is an MTAP-null cell line. For Table 1, “a*” and “aa*” indicates an IC50 of <1 μM, “b*” and “bb*” indicates an IC50 equal to or greater than 1 μM but less than 10 μM, and “c*” and “cc*” indicates an IC50 of greater than or equal to 10 μM in the HAP1 MTAP-intact and the HAP1 MTAP-deleted assays, respectively. In column 9, “A*” indicates an IC50 ratio greater than or equal to 10 fold between the IC50 in the HAP1 MTAP-intact cell line and the HAP1 MTAP-deleted cell line; “B*” indicates an IC50 ratio greater than or equal to 3 fold but lower than 10 fold between the IC50 in the HAP1 MTAP-intact cell line and the HAP1 MTAP-deleted cell line; “C*” indicates an IC50 ratio of less than 3 fold between the IC50 in the HAP1 MTAP-intact cell line and the HAP1 MTAP-deleted cell line. Compounds with a ratio in the SDMA in-cell western assay of equal to or greater than 3 fold are considered MTAP-selective.

[4] = system: HAP1 MTAP-deleted cell line; test: SDMA in-cell western assay, HAP1 MTAP-deleted; type: cell-based; settings: for IC50: Homo sapiens, HAP1 MTAP-deleted (MTAP-null) cell line; for MTAP Intact/Deleted Ratio: IC50 ratio HAP1 MTAP-intact / HAP1 MTAP-deleted, >=3 fold considered MTAP-selective
Protocol: as §1

T1 sequence (O14744 whole entry): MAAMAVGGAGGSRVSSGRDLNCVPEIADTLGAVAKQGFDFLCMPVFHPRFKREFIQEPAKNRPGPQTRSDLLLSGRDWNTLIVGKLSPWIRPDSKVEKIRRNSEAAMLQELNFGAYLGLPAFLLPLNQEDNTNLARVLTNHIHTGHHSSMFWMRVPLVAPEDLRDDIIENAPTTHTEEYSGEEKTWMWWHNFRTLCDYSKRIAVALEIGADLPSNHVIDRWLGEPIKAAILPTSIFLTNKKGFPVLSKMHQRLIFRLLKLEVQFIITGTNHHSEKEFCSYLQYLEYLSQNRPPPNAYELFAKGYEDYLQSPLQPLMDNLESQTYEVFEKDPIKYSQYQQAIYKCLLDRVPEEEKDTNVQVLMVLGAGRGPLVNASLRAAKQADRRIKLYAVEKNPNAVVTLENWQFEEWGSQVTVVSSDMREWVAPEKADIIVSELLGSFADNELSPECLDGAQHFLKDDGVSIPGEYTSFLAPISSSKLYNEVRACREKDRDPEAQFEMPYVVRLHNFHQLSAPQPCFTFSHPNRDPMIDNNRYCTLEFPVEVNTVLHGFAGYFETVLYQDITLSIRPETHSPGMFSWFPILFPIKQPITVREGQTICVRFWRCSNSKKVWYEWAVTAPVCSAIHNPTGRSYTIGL
T1 sequence (Q9BQA1 whole entry partner): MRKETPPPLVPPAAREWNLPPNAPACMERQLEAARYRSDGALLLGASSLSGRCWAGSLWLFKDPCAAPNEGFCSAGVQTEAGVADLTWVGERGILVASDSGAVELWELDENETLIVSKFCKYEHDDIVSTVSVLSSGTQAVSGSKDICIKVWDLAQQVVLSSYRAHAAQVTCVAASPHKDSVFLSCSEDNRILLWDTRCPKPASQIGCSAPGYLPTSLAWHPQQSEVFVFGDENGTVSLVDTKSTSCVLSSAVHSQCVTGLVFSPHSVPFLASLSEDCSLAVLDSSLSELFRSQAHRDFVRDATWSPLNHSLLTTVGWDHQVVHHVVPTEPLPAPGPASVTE

With CC(=O)N1CC(Nc2cc(C(=O)NCC[C@H]3Cc4ccc(OCc5ocnc5C)cc4CN3)nc(N3CCCCC3)n2)C1 (single isomer, unassigned) [83**] the IC50 (PRMT5 [1]) was < 50 nM and the IC50 (PRMT5 [2]) was 50 to 500 nM.

Molecule CC(=O)N1CC(Nc2cc(C(=O)NCC[C@@H]3Cc4ccc(OCc5ocnc5C)cc4CN3)nc(N3CCCCC3)n2)C1 (single isomer, unassigned) [85**] has an IC50 (PRMT5 [1]) of 50 to 500 nM and an IC50 (PRMT5 [2]) of 500 to 5000 nM.

Cn1nccc1COc1ccc2c(c1)CN[C@H]([C@H](O)CNC(=O)c1ccnc(NC3CCC3)c1)C2 [Compound 14, 2-(cyclobutylamino)-N—((R)-2-hydroxy-2-((S)-7-((1-methyl-1H-pyrazol-5-yl)methoxy)-1,2,3,4-tetrahydroisoquinolin-3-yl)ethyl)isonicotinamide] was tested, and the IC50 [3] was ≥ 10000 nM and the IC50 [4] was < 1000 nM.

For Cc1ncoc1COc1ccc2c(c1)CN[C@H]([C@H](O)CNC(=O)c1ccnc(NC3CCC3)c1)C2 [Compound 15, 2-(cyclobutylamino)-N—((R)-2-hydroxy-2-((S)-7-((4-methyloxazol-5-yl)methoxy)-1,2,3,4-tetrahydroisoquinolin-3-yl)ethyl)isonicotinamide], the IC50 [3] was ≥ 10000 nM and the IC50 [4] was < 1000 nM.

In the case of O=C(NC[C@@H](O)[C@@H]1Cc2ccc(OCc3cnco3)cc2CN1)c1ccnc(NC2CCC2)c1 [Compound 19, 2-(cyclobutylamino)-N—((R)-2-hydroxy-2-((S)-7-(oxazol-5-ylmethoxy)-1,2,3,4-tetrahydroisoquinolin-3-yl)ethyl)isonicotinamide], the IC50 [3] is reported as ≥ 10000 nM and the IC50 [4] is reported as 1000 to 10000 nM.

With CC(=O)N1CC(Nc2cc(C(=O)NC[C@@H](O)[C@@H]3Cc4ccc(OCc5ocnc5C)cc4CN3)nc(N3CCCCC3)n2)C1 [Compound 22, 6-((1-acetylazetidin-3-yl)amino)-N—((R)-2-hydroxy-2-((S)-7-((4-methyloxazol-5-yl)methoxy)-1,2,3,4-tetrahydroisoquinolin-3-yl)ethyl)-2-(piperidin-1-yl)pyrimidine-4-carboxamide] the IC50 [3] was 1000 to 10000 nM and the IC50 [4] was < 1000 nM.

In the case of CC(=O)N1CC2(CC(Nc3cc(C(=O)NC[C@@H](O)[C@@H]4Cc5ccc(OCc6ocnc6C)cc5CN4)nc(N4CCCCC4)n3)C2)C1 [Compound 48, 6-[(2-acetyl-2-azaspiro[3.3]heptan-6-yl)amino]-N-[(2R)-2-hydroxy-2-[(3S)-7-[(4-methyloxazol-5-yl)methoxy]-1,2,3,4-tetrahydroisoquinolin-3-yl]ethyl]-2-(1-piperidyl)pyrimidine-4-carboxamide], the IC50 [3] is reported as < 1000 nM and the IC50 [4] is reported as < 1000 nM.

For CC(=O)N1CC(Nc2cc(C(=O)NC[C@@H](O)[C@@H]3Cc4ccc(OCc5ocnc5C)cc4CN3)nc(N3CCC(C)CC3)n2)C1 [Compound 62, 6-[(1-acetylazetidin-3-yl)amino]-N-[(2R)-2-hydroxy-2-[(3S)-7-[(4-methyloxazol-5-yl)methoxy]-1,2,3,4-tetrahydroisoquinolin-3-yl]ethyl]-2-(4-methyl-1-piperidyl)pyrimidine-4-carboxamide], the IC50 [3] was 1000 to 10000 nM and the IC50 [4] was < 1000 nM.

Work on CC(=O)N1CC(Nc2cc(C(=O)NC[C@H](O)[C@@H]3Cc4ccc(OCc5ocnc5C)cc4CN3)nc(N3CCCCC3)n2)C1 [Compound 64] yielded an IC50 [4] of 1000 to 10000 nM.

Cc1ncoc1COc1cc2c(cc1F)C[C@@H]([C@H](O)CNC(=O)c1ccnc(NC3CCC3)c1)NC2 [Compound 65, 2-(cyclobutylamino)-N-[(2R)-2-[(3S)-6-fluoro-7-[(4-methyloxazol-5-yl)methoxy]-1,2,3,4-tetrahydroisoquinolin-3-yl]-2-hydroxy-ethyl]pyridine-4-carboxamide] was tested, and the IC50 [3] was ≥ 10000 nM, the IC50 [4] was < 1000 nM and the “MTAP Intact/Deleted Ratio” value [4] was “A* (an IC50 ratio greater than or equal to 10 fold between the IC50 in the HAP1 MTAP-intact cell line and the HAP1 MTAP-deleted cell line)”. For the same molecule, the IC50 (PRMT5 [1]) was < 50 nM and the IC50 (PRMT5 [2]) was 500 to 5000 nM.

In the case of COCCN(C)c1cc(C(=O)NC[C@@H](O)[C@@H]2Cc3ccc(OCc4ocnc4C)cc3CN2)cc(NC2CCN(C(C)=O)CC2)n1 [Compound 66], the IC50 [3] is reported as ≥ 10000 nM, the IC50 [4] is reported as < 1000 nM and the “MTAP Intact/Deleted Ratio” value [4] is reported as “A* (an IC50 ratio greater than or equal to 10 fold between the IC50 in the HAP1 MTAP-intact cell line and the HAP1 MTAP-deleted cell line)”. The IC50 (PRMT5 [1]) was < 50 nM and the IC50 (PRMT5 [2]) was 50 to 500 nM.

In the case of CC(=O)N1CC(Nc2cc(C(=O)NC[C@@H](O)[C@@H]3Cc4ccc(OCc5ocnc5C)cc4CN3)cc(N3CCN(C(C)C)CC3)n2)C1 [Compound 67], the IC50 [3] is reported as ≥ 10000 nM, the IC50 [4] is reported as 1000 to 10000 nM and the “MTAP Intact/Deleted Ratio” value [4] is reported as “C* (an IC50 ratio of less than 3 fold between the IC50 in the HAP1 MTAP-intact cell line and the HAP1 MTAP-deleted cell line)”. The IC50 (PRMT5 [1]) was < 50 nM and the IC50 (PRMT5 [2]) was 50 to 500 nM.

In the case of COCCN(C)c1cc(C(=O)NC[C@@H](O)[C@@H]2Cc3ccc(OCc4ocnc4C)cc3CN2)cc(NC2CC3(CCC3)C2)n1 [Compound 68], the IC50 [3] is reported as 1000 to 10000 nM, the IC50 [4] is reported as < 1000 nM and the “MTAP Intact/Deleted Ratio” value [4] is reported as “A* (an IC50 ratio greater than or equal to 10 fold between the IC50 in the HAP1 MTAP-intact cell line and the HAP1 MTAP-deleted cell line)”. For the same molecule, the IC50 (PRMT5 [1]) was < 50 nM and the IC50 (PRMT5 [2]) was 50 to 500 nM.

With COCCN(C)c1cc(C(=O)NC[C@@H](O)[C@@H]2Cc3ccc(OCc4ocnc4C)cc3CN2)cc(NC2CN(C(C)=O)C2)n1 [Compound 69] the IC50 [3] was ≥ 10000 nM, the IC50 [4] was 1000 to 10000 nM and the “MTAP Intact/Deleted Ratio” value [4] was “C* (an IC50 ratio of less than 3 fold between the IC50 in the HAP1 MTAP-intact cell line and the HAP1 MTAP-deleted cell line)”. For the same molecule, the IC50 (PRMT5 [1]) was < 50 nM and the IC50 (PRMT5 [2]) was 50 to 500 nM.

In the case of Cc1ncoc1COc1ccc2c(c1)CN[C@H]([C@H](O)CNC(=O)c1cc(NC3CC4(CCC4)C3)nc(N3CCN(C(C)C)CC3)c1)C2 [Compound 70], the IC50 [3] is reported as < 1000 nM, the IC50 [4] is reported as < 1000 nM and the “MTAP Intact/Deleted Ratio” value [4] is reported as “B* (an IC50 ratio greater than or equal to 3 fold but lower than 10 fold between the IC50 in the HAP1 MTAP-intact cell line and the HAP1 MTAP-deleted cell line)”. For the same molecule, the IC50 (PRMT5 [1]) was < 50 nM and the IC50 (PRMT5 [2]) was < 50 nM.

CC(=O)N1CCC(Nc2cc(C(=O)NC[C@@H](O)[C@@H]3Cc4ccc(OCc5ocnc5C)cc4CN3)cc(N3CCN(C(C)C)CC3)n2)CC1 [Compound 71] was tested, and the IC50 [3] was ≥ 10000 nM, the IC50 [4] was 1000 to 10000 nM and the “MTAP Intact/Deleted Ratio” value [4] was “B* (an IC50 ratio greater than or equal to 3 fold but lower than 10 fold between the IC50 in the HAP1 MTAP-intact cell line and the HAP1 MTAP-deleted cell line)”. The IC50 (PRMT5 [1]) was < 50 nM and the IC50 (PRMT5 [2]) was < 50 nM.

In the case of CCOc1cc(C(=O)N2C3CCC2COC3)ccc1C(=O)NC[C@@H](O)[C@@H]1Cc2ccc(OCc3ccncc3)cc2CN1 [Compound 73, 2-ethoxy-N-[(2R)-2-hydroxy-2-[(3S)-7-(4-pyridylmethoxy)-1,2,3,4-tetrahydroisoquinolin-3-yl]ethyl]-4-(3-oxa-8-azabicyclo[3.2.1]octane-8-carbonyl)benzamide], the IC50 [4] is reported as 1000 to 10000 nM, the IC50 (PRMT5 [1]) is reported as 50 to 500 nM and the IC50 (PRMT5 [2]) is reported as ≥ 5000 nM.

In the case of COc1ccc(C(=O)N2CCc3cc(C(=O)NC[C@@H](O)[C@@H]4Cc5ccc(OCc6cnco6)cc5CN4)ccc3C2)cc1 [Compound 74, N-[(2R)-2-hydroxy-2-[(3S)-7-(oxazol-5-ylmethoxy)-1,2,3,4-tetrahydroisoquinolin-3-yl]ethyl]-2-(4-methoxybenzoyl)-3,4-dihydro-1H-isoquinoline-6-carboxamide], the IC50 [4] is reported as < 1000 nM, the IC50 (PRMT5 [1]) is reported as < 50 nM and the IC50 (PRMT5 [2]) is reported as 50 to 500 nM.

CCOc1cc(C(=O)N2C3CCC2COC3)ccc1C(=O)NC[C@@H](O)[C@@H]1Cc2ccc(OCc3ccn[nH]3)cc2CN1 [Compound 76, 2-ethoxy-N-[(2R)-2-hydroxy-2-[(3S)-7-(1H-pyrazol-5-ylmethoxy)-1,2,3,4-tetrahydroisoquinolin-3-yl]ethyl]-4-(3-oxa-8-azabicyclo[3.2.1]octane-8-carbonyl)benzamide] was tested, and the IC50 [3] was ≥ 10000 nM, the IC50 (PRMT5 [1]) was 50 to 500 nM and the IC50 (PRMT5 [2]) was 500 to 5000 nM.

With COc1ccc(C(=O)N2CCc3cc(C(=O)NC[C@@H](O)[C@@H]4Cc5ccc(OCc6ccnn6C)cc5CN4)ccc3C2)cc1 [Compound 77, N-[(2R)-2-hydroxy-2-[(3S)-7-[(2-methylpyrazol-3-yl)methoxy]-1,2,3,4-tetrahydroisoquinolin-3-yl]ethyl]-2-(4-methoxybenzoyl)-3,4-dihydro-1H-isoquinoline-6-carboxamide] the IC50 [3] was 1000 to 10000 nM, the IC50 (PRMT5 [1]) was < 50 nM and the IC50 (PRMT5 [2]) was 500 to 5000 nM.

For COCCN(C)c1nc(NC2CC3(CCC3)C2)cc(C(=O)NC[C@@H](O)[C@@H]2Cc3ccc(OCc4ocnc4C)cc3CN2)n1 [Compound 80], the IC50 [3] was 1000 to 10000 nM and the IC50 [4] was < 1000 nM.

In the case of Cc1ncoc1COc1ccc2c(c1)CN[C@H]([C@H](O)CNC(=O)c1cc(NC3CC4(CCC4)C3)nc(N3CCN(C(=O)C4CC4)CC3)n1)C2 [Compound 84], the IC50 (PRMT5 [1]) is reported as < 50 nM and the IC50 (PRMT5 [2]) is reported as < 50 nM.

In the case of Cc1ncoc1COc1ccc2c(c1)CN[C@H]([C@H](O)CNC(=O)c1cc(NC3CC4(CCC4)C3)nc(N3CCN(C(C)C)CC3)n1)C2 [Compound 86], the IC50 (PRMT5 [1]) is reported as < 50 nM and the IC50 (PRMT5 [2]) is reported as < 50 nM.
